A value given as a limit tells only on which side of the number the result lay.

Data on 43 compounds can be found in patent publication US12247010B2, “Tubulin inhibitors” (LIN BIOSCIENCE PTY LTD., priority 2017, dated 2025).

The subject of the test is U87MG cells. Nature of the test: Cytotoxicity assay (cell viability, CellTiter 96 Aqueous MTS). It counts as cell-based. As to conditions: Homo sapiens, U-87 MG, 72 h, 72 hours incubation, starting concentration 50 uM, 9 point half log dilution, average where tested repeatedly. As for the experimental part:
Example 3: Cytotoxicity Assay
U87MG cells were plated at a density of 7×10^3 cells/well and allowed to seed overnight. Cells were then treated with compounds from Table 1 or CMPD-1 (4-(2′-fluoro-[1,1′-biphenyl]-4-yl)-N-(4-hydroxyphenyl)butanamide as a positive control) were added to cells at a starting concentration of 50 uM, with a 9 point half log dilution, and incubated for 72 hours prior to viability determination. IC50 values were calculated from cell viability as measured using the CellTiter 96® Aqueous MTS reagent from Promega©, and the results are shown in Table 2.
One may read the IC50 as the concentration at which inhibition is half-maximal. On to `Cc1nn(C)cc1C(=O)NCCCc1ccc(-c2ccccc2F)cc1` [Compound 133, N-(3-(2′-fluoro-[1,1′-biphenyl]-4-yl)propyl)-1,3-dimethyl-1H-pyrazole-4-carboxamide], for which the half-inhibitory concentration (IC50) is more than 5 µM. The same measure for `O=C(NCCCc1ccc(-c2ccccc2F)cc1)c1ccc[nH]1` [Compound 134, N-(3-(2′-fluoro-[1,1′-biphenyl]-4-yl)propyl)-1H-pyrrole-2-carboxamide]: 1 to 5 µM. The same measure for `O=C(NCCCc1ccc(-c2ccccc2F)cc1)c1cnc2ccccn12` [Compound 137, N-(3-(2′-fluoro-[1,1′-biphenyl]-4-yl)propyl)imidazo[1,2-a]pyridine-3-carboxamide]: 1 to 5 µM; for `Cc1cc(C(=O)NCCCc2ccc(-c3ccccc3F)cc2)[nH]n1` [Compound 139, N-(3-(2′-fluoro-[1,1′-biphenyl]-4-yl)propyl)-3-methyl-1H-pyrazole-5-carboxamide]: 0.501 to 1 µM; for `Cc1ccc(CC(=O)NCCCc2ccc(-c3ccccc3F)cc2)cc1` [Compound 140, N-(3-(2′-fluoro-[1,1′-biphenyl]-4-yl)propyl)-2-(p-tolyl)acetamide]: less than 0.5 µM.

Compound `Cc1nc(C(=O)NCCCc2ccc(-c3ccccc3F)cc2)cs1` [Compound 141, N-(3-(2′-fluoro-[1,1′-biphenyl]-4-yl)propyl)-2-methylthiazole-4-carboxamide] had an IC50 of more than 5 µM.

Compound `CC(C)c1cc(C(=O)NCCCc2ccc(-c3ccccc3F)cc2)n(C)n1` [Compound 142, N-(3-(2′-fluoro-[1,1′-biphenyl]-4-yl)propyl)-3-isopropyl-1-methyl-1H-pyrazole-5-carboxamide] returned an IC50 of more than 5 µM. To `Cn1nc2ccccc2c1C(=O)NCCCc1ccc(-c2ccccc2F)cc1` [Compound 143, N-(3-(2′-fluoro-[1,1′-biphenyl]-4-yl)propyl)-2-methyl-2H-indazole-3-carboxamide] belongs more than 5 µM. `Cc1noc(C)c1C(=O)NCCCc1ccc(-c2ccccc2F)cc1` [Compound 144, N-(3-(2′-fluoro-[1,1′-biphenyl]-4-yl)propyl)-3,5-dimethylisoxazole-4-carboxamide] yielded a half-inhibitory concentration (IC50) of more than 5 µM. To `Cc1cnoc1C(=O)NCCCc1ccc(-c2ccccc2F)cc1` [Compound 145, N-(3-(2′-fluoro-[1,1′-biphenyl]-4-yl)propyl)-4-methylisoxazole-5-carboxamide] belongs more than 5 µM; to `Cn1cc(C(=O)NCCCc2ccc(-c3ccccc3F)cc2)cn1` [Compound 146, N-(3-(2′-fluoro-[1,1′-biphenyl]-4-yl)propyl)-1-methyl-1H-pyrazole-4-carboxamide], 1 to 5 µM; to `Cn1ncc2cc(-c3ccc(CCCC(=O)Nc4cccnc4)cc3)ccc21` [Compound 148, 4-(4-(1-methyl-1H-indazol-5-yl)phenyl)-N-(pyridin-3-yl)butanamide], less than 0.5 µM. The same measure for `O=C(CCCc1ccc(-c2cccc(F)c2F)cc1)Nc1cccnc1` [Compound 149, 4-(2′,3′-difluoro-[1,1′-biphenyl]-4-yl)-N-(pyridin-3-yl)butanamide]: 0.501 to 1 µM; for `O=C(CCCc1ccc(-c2ccccc2)cc1)Nc1cccnc1` [Compound 151, 4-([1,1′-biphenyl]-4-yl)-N-(pyridin-3-yl)butanamide]: 1 to 5 µM.

With `Cc1ccccc1-c1ccc(CCCC(=O)Nc2cccnc2)cc1` [Compound 152, 4-(2′-methyl-[1,1′-biphenyl]-4-yl)-N-(pyridin-3-yl)butanamide], the IC50 was more than 5 µM. The same measure for `Cc1ccc(-c2ccc(CCCC(=O)Nc3cccnc3)cc2)cn1` [Compound 153, 4-(4-(6-methylpyridin-3-yl)phenyl)-N-(pyridin-3-yl)butanamide]: more than 5 µM.

For the compound `O=C(CCCc1ccc(-c2ccccc2OC(F)(F)F)cc1)Nc1cccnc1` [Compound 154, N-(pyridin-3-yl)-4-(2′-(trifluoromethoxy)-[1,1′-biphenyl]-4-yl)butanamide], the IC50 fell in the range of 1 to 5 µM. The same measure for `O=C(CCCc1ccc(-c2ccc(C(F)(F)F)nc2)cc1)Nc1cccnc1` [Compound 155, N-(pyridin-3-yl)-4-(4-(6-(trifluoromethyl)pyridin-3-yl)phenyl)butanamide]: 0.501 to 1 µM; for `Cc1cc(-c2ccc(CCCC(=O)Nc3cccnc3)cc2)ccn1` [Compound 156, 4-(4-(2-methylpyridin-4-yl)phenyl)-N-(pyridin-3-yl)butanamide]: more than 5 µM; for `O=C(CCCc1ccc(-c2ccc(F)cc2F)cc1)Nc1cccnc1` [Compound 157, 4-(2′,4′-difluoro-[1,1′-biphenyl]-4-yl)-N-(pyridin-3-yl)butanamide]: 1 to 5 µM.

Regarding `O=C(CCCc1ccc(-c2cccnc2)cc1)Nc1cccnc1` [Compound 158, N-(pyridin-3-yl)-4-(4-(pyridin-3-yl)phenyl)butanamide], the concentration for half-maximal inhibition (IC50) is more than 5 µM.

Compound `O=C(CCCc1ccc(-c2c(F)cccc2F)cc1)Nc1cccnc1` [Compound 159, 4-(2′,6′-difluoro-[1,1′-biphenyl]-4-yl)-N-(pyridin-3-yl)butanamide] registered a concentration for half-maximal inhibition (IC50) of 1 to 5 µM. To `O=C(CCCc1ccc(-c2ccccc2Cl)cc1)Nc1cccnc1` [Compound 160, 4-(2′-chloro-[1,1′-biphenyl]-4-yl)-N-(pyridin-3-yl)butanamide] belongs 1 to 5 µM; to `O=C(CCCc1ccc(-c2ccc3nonc3c2)cc1)Nc1cccnc1` [Compound 161, 4-(4-(benzo[c][1,2,5]oxadiazol-5-yl)phenyl)-N-(pyridin-3-yl)butanamide], more than 5 µM. In turn, `O=C(CCCc1ccc(-c2ccc3c(c2)OCCO3)cc1)Nc1cccnc1` [Compound 162, 4-(4-(2,3-dihydrobenzo[b][1,4]dioxin-6-yl)phenyl)-N-(pyridin-3-yl)butanamide] yielded a 50% inhibitory concentration (IC50) of 0.501 to 1 µM. To `O=C(CCCc1ccc(-c2ccc3ncccc3c2)cc1)Nc1cccnc1` [Compound 163, N-(pyridin-3-yl)-4-(4-(quinolin-6-yl)phenyl)butanamide] belongs less than 0.5 µM; to `Cn1cc2cc(-c3ccc(CCCC(=O)Nc4cccnc4)cc3)ccc2n1` [Compound 164, 4-(4-(2-methyl-2H-indazol-5-yl)phenyl)-N-(pyridin-3-yl)butanamide], 0.501 to 1 µM; to `Cn1cc2c(-c3ccc(CCCC(=O)Nc4cccnc4)cc3)cccc2n1` [Compound 165, 4-(4-(2-methyl-2H-indazol-4-yl)phenyl)-N-(pyridin-3-yl)butanamide], 1 to 5 µM. To `Cn1ncc2ccc(-c3ccc(CCCC(=O)Nc4cccnc4)cc3)cc21` [Compound 166, 4-(4-(1-methyl-1H-indazol-6-yl)phenyl)-N-(pyridin-3-yl)butanamide] belongs 1 to 5 µM. Compound `COc1ccc(-c2ccc(CCCC(=O)Nc3cccnc3)cc2)cn1` [Compound 167, 4-(4-(6-methoxypyridin-3-yl)phenyl)-N-(pyridin-3-yl)butanamide] returned a concentration for half-maximal inhibition (IC50) of more than 5 µM.

With `COc1ccc(-c2ccc(CCCC(=O)Nc3cccnc3)cc2)cc1OC` [Compound 168, 4-(3′,4′-dimethoxy-[1,1′-biphenyl]-4-yl)-N-(pyridin-3-yl)butanamide], the 50% inhibitory concentration (IC50) was 1 to 5 µM.

The compound `Cn1ccc2cc(-c3ccc(CCCC(=O)Nc4cccnc4)cc3)ccc21` [Compound 169, 4-(4-(1-methyl-1H-indol-5-yl)phenyl)-N-(pyridin-3-yl)butanamide] registered a half-maximal inhibitory concentration (IC50) of 0.501 to 1 µM.

Compound `O=C(CCCc1ccc(-c2ccc3ocnc3c2)cc1)Nc1cccnc1` [Compound 173, 4-(4-(benzo[d]oxazol-5-yl)phenyl)-N-(pyridin-3-yl)butanamide] had a 50% inhibitory concentration (IC50) of 0.501 to 1 µM. In the case of `COc1ccc(F)c(-c2ccc(CCCC(=O)Nc3cccnc3)cc2)c1` [Compound 175, 4-(2′-fluoro-5′-methoxy-[1,1′-biphenyl]-4-yl)-N-(pyridin-3-yl)butanamide], the IC50 lay within 0.501 to 1 µM. To `O=C(CCCc1ccc(-c2cn[nH]c2)cc1)Nc1cccnc1` [Compound 176, 4-(4-(1H-pyrazol-4-yl)phenyl)-N-(pyridin-3-yl)butanamide] belongs more than 5 µM; to `O=C(CCCc1ccc(-c2ccc3c(c2)NC(=O)C3)cc1)Nc1cccnc1` [Compound 177, 4-(4-(2-oxoindolin-6-yl)phenyl)-N-(pyridin-3-yl)butanamide], 0.501 to 1 µM; to `COc1ncccc1-c1ccc(CCCC(=O)Nc2cccnc2)cc1` [Compound 178, 4-(4-(2-methoxypyridin-3-yl)phenyl)-N-(pyridin-3-yl)butanamide], more than 5 µM. To `O=C(CCCc1ccc(-c2cc(Cl)ccc2F)cc1)Nc1cccnc1` [Compound 179, 4-(5′-chloro-2′-fluoro-[1,1′-biphenyl]-4-yl)-N-(pyridin-3-yl)butanamide] belongs more than 5 µM; to `Cc1c(-c2ccc(CCCC(=O)Nc3cccnc3)cc2)ccc2[nH]ncc12` [Compound 180, 4-(4-(4-methyl-1H-indazol-5-yl)phenyl)-N-(pyridin-3-yl)butanamide], less than 0.5 µM; to `O=C(CCCc1ccc(-c2cnc3[nH]ccc3c2)cc1)Nc1cccnc1` [Compound 181, 4-(4-(1H-pyrrolo[2,3-b]pyridin-5-yl)phenyl)-N-(pyridin-3-yl)butanamide], less than 0.5 µM. The same measure for `O=C(CCCc1ccc(-c2cnc3ccccc3c2)cc1)Nc1cccnc1` [Compound 183, N-(pyridin-3-yl)-4-(4-(quinolin-3-yl)phenyl)butanamide]: 1 to 5 µM; for `COc1cccc(-c2ccc(CCCC(=O)Nc3cccnc3)cc2)c1F` [Compound 184, 4-(2′-fluoro-3′-methoxy-[1,1′-biphenyl]-4-yl)-N-(pyridin-3-yl)butanamide]: less than 0.5 µM.

The compound `O=C(CCCc1cccc(-n2cccn2)c1)Nc1cccnc1` [Compound 185, 4-(3-(1H-pyrazol-1-yl)phenyl)-N-(pyridin-3-yl)butanamide] yielded an IC50 of more than 5 µM.
